In PubChem BioAssay (NCI):
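Briefly, cells in 96-well plates were exposed to five compound concentrations for 48 h, and endpoints were estimated by linear interpolation. GI50: concentration for 50% inhibition of growth. TGI: total growth inhibition.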

Tests used:
Assay in all cases: growth of human tumour cells (NCI), 48 h; in the data active means GI50 below about 0.43 µM; inactive means the rest
A549 NSCLC = tested on: A549 NSCLC
ACHN renal = tested on: ACHN renal
CAKI-1 renal = tested on: CAKI-1 renal
HCC-2998 colon = tested on: HCC-2998 colon
NCI-H522 lung = tested on: NCI-H522 lung
OVCAR-5 ovarian = tested on: OVCAR-5 ovarian
SK-MEL-28 melanoma = tested on: SK-MEL-28 melanoma
SN12C renal = tested on: SN12C renal
TK-10 renal = tested on: TK-10 renal
UACC-62 melanoma = tested on: UACC-62 melanoma

Cc1c2c(C(N)=O)nccc2c(C)c2c1c1ccccc1n2Cc1ccccc1
54.6 µM: TGI (NCI-H522 lung)
44.8 µM: TGI (SN12C renal)
35.5 µM: TGI (TK-10 renal)
59 µM: TGI (CAKI-1 renal)
> 100 µM: TGI (OVCAR-5 ovarian) | TGI (SK-MEL-28 melanoma) | TGI (UACC-62 melanoma)
37.5 µM: TGI (ACHN renal)
35.4 µM: TGI (A549 NSCLC)
73.1 µM: TGI (HCC-2998 colon)

Cc1ccc2occ/c(=N\Nc3ccccc3)c2c1
> 100 µM: TGI (A549 NSCLC) | TGI (ACHN renal) | TGI (CAKI-1 renal) | TGI (HCC-2998 colon) | TGI (NCI-H522 lung) | TGI (OVCAR-5 ovarian) | TGI (SK-MEL-28 melanoma) | TGI (SN12C renal) | TGI (TK-10 renal) | TGI (UACC-62 melanoma)

CC(C)(C)c1cc(C(=O)/C=C/c2ccc(C(=O)O)cc2)cc(C(C)(C)C)c1
3.88 µM: TGI (HCC-2998 colon)
11.9 µM: TGI (TK-10 renal)
17.2 µM: TGI (OVCAR-5 ovarian)
6.6 µM: TGI (SN12C renal)
13.4 µM: TGI (A549 NSCLC)
15.4 µM: TGI (NCI-H522 lung)
4.67 µM: TGI (UACC-62 melanoma)
6.83 µM: TGI (SK-MEL-28 melanoma)
15.5 µM: TGI (ACHN renal) | TGI (CAKI-1 renal)

CC1=NC(C)(COC(=O)C2(C)NC(C)(CO)CO2)COC1=O (stereo not given)
> 100 µM: TGI (A549 NSCLC) | TGI (ACHN renal) | TGI (CAKI-1 renal) | TGI (HCC-2998 colon) | TGI (NCI-H522 lung) | TGI (OVCAR-5 ovarian) | TGI (SK-MEL-28 melanoma) | TGI (SN12C renal) | TGI (TK-10 renal) | TGI (UACC-62 melanoma)

COc1ccc2nc3cc(Cl)ccc3c(Sc3ccc(NC(C)=O)cc3)c2c1
18.7 µM: TGI (ACHN renal)
> 45.7 µM: TGI (OVCAR-5 ovarian)
> 25.6 µM: TGI (SN12C renal)
> 50.6 µM: TGI (CAKI-1 renal)
> 51.1 µM: TGI (TK-10 renal)
> 42.1 µM: TGI (UACC-62 melanoma)
7.85 µM: TGI (NCI-H522 lung)
38.7 µM: TGI (SK-MEL-28 melanoma)
> 100 µM: TGI (A549 NSCLC)
5.93 µM: TGI (HCC-2998 colon)

NC(N)=N/N=C(\N=Nc1ccccc1)c1ccc(Cl)cc1
4.35 µM: TGI (UACC-62 melanoma)
22.1 µM: TGI (SN12C renal)
inactive: GI50 (A549 NSCLC) 4.25 µM | GI50 (ACHN renal) 2.51 µM | GI50 (CAKI-1 renal) 1.42 µM | GI50 (HCC-2998 colon) 2.14 µM | GI50 (NCI-H522 lung) 3.35 µM | GI50 (OVCAR-5 ovarian) 3.69 µM | GI50 (SK-MEL-28 melanoma) 1.98 µM | GI50 (SN12C renal) 4.65 µM | GI50 (TK-10 renal) 3.18 µM | GI50 (UACC-62 melanoma) 1.13 µM
4.68 µM: TGI (HCC-2998 colon)
3.29 µM: TGI (CAKI-1 renal)
8.06 µM: TGI (ACHN renal)
16.8 µM: TGI (OVCAR-5 ovarian)
12 µM: TGI (TK-10 renal)
18.5 µM: TGI (A549 NSCLC)
4.59 µM: TGI (SK-MEL-28 melanoma)
13.8 µM: TGI (NCI-H522 lung)

COC(=O)[C@]12CC[C@@H](C)[C@H](C)[C@@H]1C1=CC[C@@H]3[C@@]4(C)C(C=O)=C[C@@](C)(COC(=O)c5ccco5)[C@@H]4[C@H](O)C[C@@]3(C)[C@]1(C)CC2
2.64 µM: TGI (SK-MEL-28 melanoma)
9.32 µM: TGI (TK-10 renal)
inactive: GI50 (A549 NSCLC) 3.51 µM | GI50 (ACHN renal) 1.13 µM | GI50 (CAKI-1 renal) 2.86 µM | GI50 (HCC-2998 colon) 1.92 µM | GI50 (NCI-H522 lung) 1.64 µM | GI50 (OVCAR-5 ovarian) 3 µM | GI50 (SN12C renal) 3.44 µM | GI50 (TK-10 renal) 2.04 µM
3.94 µM: TGI (NCI-H522 lung)
3.71 µM: TGI (HCC-2998 colon)
3.78 µM: TGI (ACHN renal)
2.22 µM: TGI (UACC-62 melanoma)
> 100 µM: TGI (CAKI-1 renal)
16.2 µM: TGI (A549 NSCLC)
83.2 µM: TGI (SN12C renal)
9.72 µM: TGI (OVCAR-5 ovarian)
active: GI50 (SK-MEL-28 melanoma) 0.0918 µM | GI50 (UACC-62 melanoma) 0.382 µM

O=C(NNc1cnccn1)c1nc2cc(F)ccc2n2cccc12
inactive: GI50 (A549 NSCLC) 0.542 µM | GI50 (HCC-2998 colon) 2.88 µM | GI50 (OVCAR-5 ovarian) 0.828 µM | GI50 (SK-MEL-28 melanoma) 1.08 µM | GI50 (SN12C renal) 0.925 µM | GI50 (TK-10 renal) 0.647 µM | GI50 (UACC-62 melanoma) 0.7 µM
> 100 µM: TGI (A549 NSCLC) | TGI (ACHN renal) | TGI (CAKI-1 renal) | TGI (HCC-2998 colon) | TGI (OVCAR-5 ovarian) | TGI (SK-MEL-28 melanoma) | TGI (SN12C renal) | TGI (TK-10 renal) | TGI (UACC-62 melanoma)
active: GI50 (ACHN renal) 0.362 µM | GI50 (CAKI-1 renal) 0.422 µM | GI50 (NCI-H522 lung) 0.281 µM
0.963 µM: TGI (NCI-H522 lung)

NC(=O)c1cn(Cc2ccccc2)c(=O)n1Cc1ccccc1
> 100 µM: TGI (A549 NSCLC) | TGI (ACHN renal) | TGI (CAKI-1 renal) | TGI (HCC-2998 colon) | TGI (NCI-H522 lung) | TGI (OVCAR-5 ovarian) | TGI (SK-MEL-28 melanoma) | TGI (SN12C renal) | TGI (TK-10 renal) | TGI (UACC-62 melanoma)

CC1COS(=O)O1 (stereo not given)
> 100 µM: TGI (A549 NSCLC) | TGI (ACHN renal) | TGI (CAKI-1 renal) | TGI (HCC-2998 colon) | TGI (NCI-H522 lung) | TGI (OVCAR-5 ovarian) | TGI (SK-MEL-28 melanoma) | TGI (SN12C renal) | TGI (TK-10 renal) | TGI (UACC-62 melanoma)

CC1(C)N=C(N)N=C(N)N1c1cccc(OCCOc2cccc([N+](=O)[O-])c2)c1
inactive: GI50 (A549 NSCLC) 0.561 µM | GI50 (ACHN renal) > 100 µM | GI50 (CAKI-1 renal) > 100 µM | GI50 (HCC-2998 colon) 2.81 µM | GI50 (NCI-H522 lung) 1.19 µM | GI50 (OVCAR-5 ovarian) 1.88 µM | GI50 (SK-MEL-28 melanoma) 7.86 µM | GI50 (SN12C renal) 4.04 µM | GI50 (TK-10 renal) 66 µM | GI50 (UACC-62 melanoma) 2.28 µM
62.5 µM: TGI (NCI-H522 lung)
> 100 µM: TGI (A549 NSCLC) | TGI (ACHN renal) | TGI (CAKI-1 renal) | TGI (HCC-2998 colon) | TGI (OVCAR-5 ovarian) | TGI (SK-MEL-28 melanoma) | TGI (SN12C renal) | TGI (TK-10 renal) | TGI (UACC-62 melanoma)

COc1ccc(-c2ccc(NNC(=O)c3ccc(F)cc3)nn2)cc1OC
> 100 µM: TGI (A549 NSCLC) | TGI (ACHN renal) | TGI (CAKI-1 renal) | TGI (HCC-2998 colon) | TGI (NCI-H522 lung) | TGI (OVCAR-5 ovarian) | TGI (SK-MEL-28 melanoma) | TGI (SN12C renal) | TGI (TK-10 renal) | TGI (UACC-62 melanoma)
inactive: GI50 (A549 NSCLC) 99.5 µM | GI50 (ACHN renal) > 100 µM | GI50 (CAKI-1 renal) 34.3 µM | GI50 (HCC-2998 colon) > 100 µM | GI50 (NCI-H522 lung) 54.3 µM | GI50 (OVCAR-5 ovarian) > 100 µM | GI50 (SK-MEL-28 melanoma) > 100 µM | GI50 (SN12C renal) > 100 µM | GI50 (TK-10 renal) > 100 µM | GI50 (UACC-62 melanoma) > 100 µM

O=C1C=CC(=CC=C2C=CN(CCCCCCCCCCC(=O)NCCCCCCCCCCCC(=O)O)C=C2)C=C1
> 100 µM: TGI (A549 NSCLC) | TGI (ACHN renal) | TGI (CAKI-1 renal) | TGI (HCC-2998 colon) | TGI (NCI-H522 lung) | TGI (OVCAR-5 ovarian) | TGI (SK-MEL-28 melanoma) | TGI (SN12C renal) | TGI (TK-10 renal) | TGI (UACC-62 melanoma)

N#CC(C#N)=C1CCCOc2c1ccc1ccccc21
inactive: GI50 (A549 NSCLC) > 100 µM | GI50 (ACHN renal) > 100 µM | GI50 (CAKI-1 renal) > 100 µM | GI50 (HCC-2998 colon) > 100 µM | GI50 (NCI-H522 lung) > 100 µM | GI50 (OVCAR-5 ovarian) > 100 µM | GI50 (SK-MEL-28 melanoma) > 100 µM | GI50 (SN12C renal) > 100 µM | GI50 (TK-10 renal) 42.9 µM | GI50 (UACC-62 melanoma) > 100 µM
> 100 µM: TGI (A549 NSCLC) | TGI (ACHN renal) | TGI (CAKI-1 renal) | TGI (HCC-2998 colon) | TGI (NCI-H522 lung) | TGI (OVCAR-5 ovarian) | TGI (SK-MEL-28 melanoma) | TGI (SN12C renal) | TGI (TK-10 renal) | TGI (UACC-62 melanoma)

CC12CCC(=O)N1c1cccnc1N2 (stereo not given)
> 100 µM: TGI (A549 NSCLC) | TGI (ACHN renal) | TGI (CAKI-1 renal) | TGI (HCC-2998 colon) | TGI (NCI-H522 lung) | TGI (OVCAR-5 ovarian) | TGI (SK-MEL-28 melanoma) | TGI (SN12C renal) | TGI (TK-10 renal) | TGI (UACC-62 melanoma)

COc1cc(/C=C/C(=O)Oc2ccccc2)ccc1C(=O)O/C=C/c1ccccc1
> 100 µM: TGI (A549 NSCLC) | TGI (ACHN renal) | TGI (CAKI-1 renal) | TGI (HCC-2998 colon) | TGI (NCI-H522 lung) | TGI (OVCAR-5 ovarian) | TGI (SK-MEL-28 melanoma) | TGI (SN12C renal) | TGI (TK-10 renal) | TGI (UACC-62 melanoma)

O=C1c2ccccc2C(=O)N1C/C=N/NS(=O)(=O)c1ccc(Br)cc1
> 100 µM: TGI (A549 NSCLC) | TGI (ACHN renal) | TGI (CAKI-1 renal) | TGI (HCC-2998 colon) | TGI (NCI-H522 lung) | TGI (OVCAR-5 ovarian) | TGI (SK-MEL-28 melanoma) | TGI (SN12C renal) | TGI (TK-10 renal) | TGI (UACC-62 melanoma)
